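Where inhibition never reached the appropriate level, the endpoint shown equals the highest concentration tested. Otherwise, values were interpolated linearly from a five-concentration, 48-hour dose response in 96-well plates. Definition used: TGI = concentration required for complete inhibition of growth.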
Key:
Assay in all cases: inhibition of tumour cell growth, NCI panel, 48 h
[1] = system: 786-0 renal
[2] = system: A498 renal
[3] = system: A549 NSCLC
[4] = system: ACHN renal
[5] = system: CAKI-1 renal
[6] = system: CCRF-CEM leukemia
[7] = system: DLD-1 colon
[8] = system: DMS 114 small cell lung
[9] = system: EKVX NSCLC
[10] = system: HCC-2998 colon
[11] = system: HCT-116 colon
[12] = system: HCT-15 colon
[13] = system: HL-60(TB) leukemia
[14] = system: HOP-92 NSCLC
[15] = system: HT29 colon
[16] = system: IGROV1 ovarian
[17] = system: K-562 leukemia
[18] = system: KM12 colon
[19] = system: KM20L2 colon
[20] = system: LOX IMVI melanoma
[21] = system: LXFL 529 NSCLC
[22] = system: M14 melanoma
[23] = system: MALME-3M melanoma
[24] = system: MOLT-4 leukemia
[25] = system: NCI-H23 lung
[26] = system: NCI-H460 lung
[27] = system: OVCAR-4 ovarian
[28] = system: OVCAR-5 ovarian
[29] = system: OVCAR-8 ovarian
[30] = system: RPMI-8226 leukemia
[31] = system: RXF 393 renal
[32] = system: SF-268 CNS
[33] = system: SF-295 CNS
[34] = system: SF-539 CNS
[35] = system: SK-MEL-2 melanoma
[36] = system: SK-MEL-28 melanoma
[37] = system: SK-MEL-5 melanoma
[38] = system: SK-OV-3 ovarian
[39] = system: SN12C renal
[40] = system: SNB-19 CNS
[41] = system: SNB-75 CNS
[42] = system: SNB-78 CNS
[43] = system: SR leukemia
[44] = system: SW-620 colon
[45] = system: TK-10 renal
[46] = system: U251 CNS
[47] = system: UACC-257 melanoma
[48] = system: UACC-62 melanoma
[49] = system: UO-31 renal

Measured: TGI

c1ccc(C2(c3ccccc3)SSC3(S2)C2CC4CC(C2)CC3C4)cc1 (centres undefined)
> 100 µM: all assays above

Source: PubChem BioAssay (NCI)
